# Experimental data taken from ChEMBL document CHEMBL1201862, “PubChem BioAssay data set” (2004).
# Active and inactive are the calls of the source.
# Legend:
# [1] = molecular target: T1, DNA repair and recombination protein RAD54-like (Homo sapiens, UniProt Q92698); assay: RAD54 Holliday junction migration blockers – biochemical, fluorescence, cherry-picked samples, dose series, confirmation (AID 651657); type: functional
# T1 sequence (Q92698 whole entry): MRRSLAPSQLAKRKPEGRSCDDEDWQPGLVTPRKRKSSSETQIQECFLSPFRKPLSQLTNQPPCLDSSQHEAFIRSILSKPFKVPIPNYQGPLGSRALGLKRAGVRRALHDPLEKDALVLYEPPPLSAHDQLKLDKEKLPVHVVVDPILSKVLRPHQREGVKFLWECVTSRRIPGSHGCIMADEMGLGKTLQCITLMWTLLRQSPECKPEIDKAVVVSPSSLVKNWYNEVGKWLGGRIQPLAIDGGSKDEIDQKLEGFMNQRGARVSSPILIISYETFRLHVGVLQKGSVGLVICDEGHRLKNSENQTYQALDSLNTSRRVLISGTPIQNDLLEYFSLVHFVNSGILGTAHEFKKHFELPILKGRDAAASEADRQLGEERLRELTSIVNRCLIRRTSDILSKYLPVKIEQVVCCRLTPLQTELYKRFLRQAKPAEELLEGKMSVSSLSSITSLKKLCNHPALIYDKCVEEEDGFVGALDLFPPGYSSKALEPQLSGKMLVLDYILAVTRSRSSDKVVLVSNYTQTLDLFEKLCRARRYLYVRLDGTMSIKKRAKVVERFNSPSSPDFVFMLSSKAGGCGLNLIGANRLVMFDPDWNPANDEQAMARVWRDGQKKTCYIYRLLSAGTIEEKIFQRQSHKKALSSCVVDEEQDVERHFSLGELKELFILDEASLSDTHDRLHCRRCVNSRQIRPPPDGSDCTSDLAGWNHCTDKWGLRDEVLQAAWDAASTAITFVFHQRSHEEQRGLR
# [2] = IC50 of Artemis nuclease activity blockers – biochemical, fluorescence intensity, dose response (AID 720701); type: functional;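 also: Artemis endonuclease enzyme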
# [3] = Luminescence Cell-Based Dose Response HTS to Identify Inhibitors of 5'UTR Stem-Loop Driven Prion Protein mRNA Translation in H4 Neuroglioblastoma Cells. [Related pubchem assays: 1827 (Project Summary), 1813 (Primary HTS)]; type: functional
# [4] = alpha-synuclein stem-loop luciferase translation blockers – H4 neuroglioma cells, luminescence, confirmation (AID 1988); type: functional, cell-based
# [5] = luciferase reporter signal suppression in cells – H4 neuroglioma cells, luminescence, dose response (AID 1990); type: functional, cell-based
# Cysteine protease ATG4B = molecular target: T2, Cysteine protease ATG4B (Homo sapiens, UniProt Q9Y4P1); type: functional;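 also: Fluorescence-based dose-response confirmation assay measuring inhibition of ATG4B activity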
# T2 sequence (Q9Y4P1 whole entry): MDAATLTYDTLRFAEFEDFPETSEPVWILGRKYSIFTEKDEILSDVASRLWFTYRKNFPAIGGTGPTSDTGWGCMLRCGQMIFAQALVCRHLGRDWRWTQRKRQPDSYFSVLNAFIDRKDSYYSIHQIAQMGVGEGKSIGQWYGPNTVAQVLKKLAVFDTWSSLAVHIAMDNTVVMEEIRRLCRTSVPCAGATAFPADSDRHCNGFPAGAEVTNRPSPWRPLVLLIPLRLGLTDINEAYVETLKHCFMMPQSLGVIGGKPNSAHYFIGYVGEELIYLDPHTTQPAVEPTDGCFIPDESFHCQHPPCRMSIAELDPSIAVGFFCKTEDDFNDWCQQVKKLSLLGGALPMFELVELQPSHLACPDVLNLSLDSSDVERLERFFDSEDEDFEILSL
# Melanocortin receptor 4 = Melanocortin receptor 4 (Homo sapiens, UniProt P32245); type: functional, cell-based;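 also: Cell-based assay with luminescence read-out, confirmatory dose-response testing for agonist activity of biased ligands at MC4R; human U2OS cells with tagged receptor and beta-arrestin; potency of agonists that increase receptor coupling to beta-arrestin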
# Chain of Melanocortin receptor 4 (P32245 whole entry): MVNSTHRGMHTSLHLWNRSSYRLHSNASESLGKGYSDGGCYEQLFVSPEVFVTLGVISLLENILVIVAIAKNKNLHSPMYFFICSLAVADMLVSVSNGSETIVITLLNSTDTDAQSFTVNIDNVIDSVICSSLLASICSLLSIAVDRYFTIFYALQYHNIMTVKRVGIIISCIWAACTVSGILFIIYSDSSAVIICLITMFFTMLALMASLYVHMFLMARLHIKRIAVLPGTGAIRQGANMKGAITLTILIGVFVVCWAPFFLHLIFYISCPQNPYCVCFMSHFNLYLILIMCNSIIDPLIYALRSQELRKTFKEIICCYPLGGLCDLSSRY
# [6] = molecular target: Voltage-gated N-type calcium channel alpha-1B subunit/Amyloid beta A4 precursor protein-binding family A member 1 (Homo sapiens, UniProt Q00975+Q02410); type: protein assay
# Chain of Voltage-gated N-type calcium channel alpha-1B subunit/Amyloid beta A4 precursor protein-binding family A member 1 (Q00975 whole entry): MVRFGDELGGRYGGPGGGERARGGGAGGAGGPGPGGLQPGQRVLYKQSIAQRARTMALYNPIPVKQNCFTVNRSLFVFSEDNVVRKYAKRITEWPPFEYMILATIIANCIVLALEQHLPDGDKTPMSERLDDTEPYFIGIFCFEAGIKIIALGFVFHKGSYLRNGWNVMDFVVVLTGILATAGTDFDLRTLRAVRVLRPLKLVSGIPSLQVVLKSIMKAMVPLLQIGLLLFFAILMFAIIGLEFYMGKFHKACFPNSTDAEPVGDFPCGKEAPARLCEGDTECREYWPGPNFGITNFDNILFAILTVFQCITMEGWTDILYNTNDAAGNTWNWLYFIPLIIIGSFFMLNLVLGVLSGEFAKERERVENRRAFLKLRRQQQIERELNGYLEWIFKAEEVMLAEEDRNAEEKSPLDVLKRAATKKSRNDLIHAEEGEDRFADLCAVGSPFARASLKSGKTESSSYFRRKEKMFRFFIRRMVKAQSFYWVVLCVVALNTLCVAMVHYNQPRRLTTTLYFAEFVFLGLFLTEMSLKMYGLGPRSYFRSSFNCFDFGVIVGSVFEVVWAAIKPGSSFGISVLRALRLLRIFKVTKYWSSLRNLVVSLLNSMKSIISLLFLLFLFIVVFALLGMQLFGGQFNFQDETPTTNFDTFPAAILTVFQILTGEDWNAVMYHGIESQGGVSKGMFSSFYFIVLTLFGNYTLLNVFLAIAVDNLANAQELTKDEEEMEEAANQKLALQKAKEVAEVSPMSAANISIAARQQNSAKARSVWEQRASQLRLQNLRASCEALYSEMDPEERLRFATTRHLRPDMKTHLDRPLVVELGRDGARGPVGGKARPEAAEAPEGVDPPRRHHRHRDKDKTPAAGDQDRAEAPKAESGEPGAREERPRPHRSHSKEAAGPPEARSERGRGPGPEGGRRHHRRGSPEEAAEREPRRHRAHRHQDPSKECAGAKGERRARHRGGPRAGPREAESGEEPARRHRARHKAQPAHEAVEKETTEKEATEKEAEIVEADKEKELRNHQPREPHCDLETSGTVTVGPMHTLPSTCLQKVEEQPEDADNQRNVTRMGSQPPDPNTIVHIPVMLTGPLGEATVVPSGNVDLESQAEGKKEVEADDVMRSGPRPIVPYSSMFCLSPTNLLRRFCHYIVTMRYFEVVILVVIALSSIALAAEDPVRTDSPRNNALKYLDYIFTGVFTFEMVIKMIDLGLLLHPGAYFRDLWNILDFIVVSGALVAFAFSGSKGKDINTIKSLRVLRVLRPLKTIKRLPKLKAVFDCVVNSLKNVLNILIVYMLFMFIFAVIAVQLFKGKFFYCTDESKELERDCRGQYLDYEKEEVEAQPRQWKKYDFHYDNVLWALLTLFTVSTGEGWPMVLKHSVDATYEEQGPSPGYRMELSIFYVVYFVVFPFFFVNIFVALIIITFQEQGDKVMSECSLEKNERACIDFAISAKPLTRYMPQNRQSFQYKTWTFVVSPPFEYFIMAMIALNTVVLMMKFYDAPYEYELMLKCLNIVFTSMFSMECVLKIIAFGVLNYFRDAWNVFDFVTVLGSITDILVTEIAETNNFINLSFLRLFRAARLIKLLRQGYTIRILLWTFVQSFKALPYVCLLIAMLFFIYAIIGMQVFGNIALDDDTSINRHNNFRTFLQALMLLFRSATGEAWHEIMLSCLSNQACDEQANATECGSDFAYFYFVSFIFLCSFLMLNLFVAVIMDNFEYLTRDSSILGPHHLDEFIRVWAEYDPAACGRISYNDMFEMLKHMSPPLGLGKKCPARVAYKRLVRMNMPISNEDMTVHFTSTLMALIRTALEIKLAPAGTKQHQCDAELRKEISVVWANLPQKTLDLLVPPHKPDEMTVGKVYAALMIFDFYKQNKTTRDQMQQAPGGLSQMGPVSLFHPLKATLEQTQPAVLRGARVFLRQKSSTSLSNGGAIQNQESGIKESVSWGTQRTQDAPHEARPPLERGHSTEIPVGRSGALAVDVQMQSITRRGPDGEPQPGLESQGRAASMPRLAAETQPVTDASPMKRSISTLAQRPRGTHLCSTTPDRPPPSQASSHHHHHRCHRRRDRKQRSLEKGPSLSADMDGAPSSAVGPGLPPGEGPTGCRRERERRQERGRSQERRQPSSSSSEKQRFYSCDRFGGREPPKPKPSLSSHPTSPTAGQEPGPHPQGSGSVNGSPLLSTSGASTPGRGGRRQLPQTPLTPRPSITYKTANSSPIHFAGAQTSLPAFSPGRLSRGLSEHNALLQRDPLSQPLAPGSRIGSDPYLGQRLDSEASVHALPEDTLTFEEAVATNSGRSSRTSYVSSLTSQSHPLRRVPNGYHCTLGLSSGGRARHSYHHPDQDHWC
# Chain of Voltage-gated N-type calcium channel alpha-1B subunit/Amyloid beta A4 precursor protein-binding family A member 1 (Q02410 whole entry): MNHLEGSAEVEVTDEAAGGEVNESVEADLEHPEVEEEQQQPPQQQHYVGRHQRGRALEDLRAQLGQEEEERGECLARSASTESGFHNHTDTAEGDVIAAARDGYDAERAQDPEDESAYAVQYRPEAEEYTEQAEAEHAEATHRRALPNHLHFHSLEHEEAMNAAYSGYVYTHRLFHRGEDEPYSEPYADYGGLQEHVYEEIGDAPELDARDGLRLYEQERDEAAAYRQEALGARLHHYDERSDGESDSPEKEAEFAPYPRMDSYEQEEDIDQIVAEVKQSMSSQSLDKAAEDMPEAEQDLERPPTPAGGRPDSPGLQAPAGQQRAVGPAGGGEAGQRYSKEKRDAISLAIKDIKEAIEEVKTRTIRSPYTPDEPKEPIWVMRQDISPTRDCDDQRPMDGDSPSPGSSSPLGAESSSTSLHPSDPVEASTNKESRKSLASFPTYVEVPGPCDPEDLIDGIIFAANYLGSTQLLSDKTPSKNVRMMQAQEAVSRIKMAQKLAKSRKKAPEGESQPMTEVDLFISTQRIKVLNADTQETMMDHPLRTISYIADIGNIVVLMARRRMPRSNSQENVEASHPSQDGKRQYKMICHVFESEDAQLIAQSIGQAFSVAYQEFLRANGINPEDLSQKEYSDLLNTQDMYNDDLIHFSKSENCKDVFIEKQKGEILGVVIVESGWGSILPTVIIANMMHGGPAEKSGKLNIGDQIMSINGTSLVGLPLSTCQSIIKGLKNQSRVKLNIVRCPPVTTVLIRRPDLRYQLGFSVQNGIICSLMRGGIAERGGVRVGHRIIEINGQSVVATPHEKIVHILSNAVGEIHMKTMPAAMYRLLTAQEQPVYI
# [7] = molecular target: T3, Tyrosine-protein phosphatase non-receptor type 7 (Homo sapiens, UniProt P35236); assay: HTS HePTP Fluorescent Assay using OMFP substrate for In Vitro dose response studies. [Related pubchem assays (depositor defined):AID1059, AID1077, AID1784, AID2068, AID2085, AID435032, AID521]; type: functional
# T3 sequence (P35236 whole entry): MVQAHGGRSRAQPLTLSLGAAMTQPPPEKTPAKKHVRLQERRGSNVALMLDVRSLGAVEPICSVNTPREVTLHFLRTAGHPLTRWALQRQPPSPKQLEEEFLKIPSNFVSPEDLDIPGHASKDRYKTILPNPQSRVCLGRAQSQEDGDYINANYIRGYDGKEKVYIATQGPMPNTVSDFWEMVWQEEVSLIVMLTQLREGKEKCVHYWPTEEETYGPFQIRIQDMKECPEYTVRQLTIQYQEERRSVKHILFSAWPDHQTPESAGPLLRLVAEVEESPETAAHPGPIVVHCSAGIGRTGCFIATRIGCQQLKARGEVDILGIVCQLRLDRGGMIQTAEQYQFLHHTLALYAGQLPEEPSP
# [8] = molecular target: T4, Tyrosine-protein phosphatase non-receptor type 22 (Homo sapiens, UniProt Q9Y2R2); assay: PubChem AID 2140
# T4 sequence (Q9Y2R2 whole entry): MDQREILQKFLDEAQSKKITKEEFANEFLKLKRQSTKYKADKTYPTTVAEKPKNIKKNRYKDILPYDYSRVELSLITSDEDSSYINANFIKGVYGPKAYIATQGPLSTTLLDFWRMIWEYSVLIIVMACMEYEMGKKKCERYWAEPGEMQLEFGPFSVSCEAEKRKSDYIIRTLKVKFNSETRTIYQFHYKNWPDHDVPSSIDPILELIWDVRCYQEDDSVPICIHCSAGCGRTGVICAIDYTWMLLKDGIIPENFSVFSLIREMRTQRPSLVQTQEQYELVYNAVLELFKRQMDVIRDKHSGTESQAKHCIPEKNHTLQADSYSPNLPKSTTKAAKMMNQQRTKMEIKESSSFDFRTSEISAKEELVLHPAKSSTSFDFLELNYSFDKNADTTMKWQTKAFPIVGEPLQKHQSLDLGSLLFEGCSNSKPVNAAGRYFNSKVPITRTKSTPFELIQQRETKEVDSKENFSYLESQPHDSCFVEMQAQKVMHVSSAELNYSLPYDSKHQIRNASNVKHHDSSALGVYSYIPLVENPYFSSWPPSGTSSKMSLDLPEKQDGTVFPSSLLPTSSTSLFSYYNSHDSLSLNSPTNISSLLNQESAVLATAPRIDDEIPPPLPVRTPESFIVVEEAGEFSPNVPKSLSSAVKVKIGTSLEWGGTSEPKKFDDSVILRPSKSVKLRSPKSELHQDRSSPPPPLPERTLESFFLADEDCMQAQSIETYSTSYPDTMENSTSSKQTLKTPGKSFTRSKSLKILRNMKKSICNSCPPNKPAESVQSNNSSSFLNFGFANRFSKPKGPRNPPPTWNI
structure (smiles),measurement,setting,value
COc1cc(NCCCNC(C)C)c2nccc(C)c2c1,AC50,[1],49.6 µM (active)
Cc1oc2c(c1C(=O)c1ccccc1)C(=O)C(=O)c1ccccc1-2,IC50,[2],1.48 µM (active)
same,EC50,[3],> 120 µM (not active)
same,EC50,[4],8.93 µM (active)
same,EC50,[5],> 120 µM (not active)
CC(/C=C1\SC(=S)N(NS(=O)(=O)c2ccccc2)C1=O)=C\c1ccccc1,IC50,Cysteine protease ATG4B,12 µM (active)
CCN1/C(=C/c2ccc3cc(C)ccc3[n+]2CC)Sc2cc(C)c(C)cc21,EC50,Melanocortin receptor 4,> 3.3 µM (active)
O=C(O)COc1ccc(/C=N/NC(=O)c2ccc(-c3csc(Nc4ccc(Cl)cc4)n3)cc2)cc1,IC50,[6],> 50 µM (inactive)
same,IC50,[7],> 99 µM (inactive)
same,IC50,[8],6.07 µM (active)
